From patent US7960352B2, “Anti-cancer activity of Androsace umbellata Merr. extract and contained triterpene saponin” (Sungkyunkwan University Foundation for Corporate …, priority 2005, dated 2011) come the findings set out here.

Values after ≈ are worked out from the molar mass of the structure shown.

Data set [1] deals with HeLa (uterine cancer cells). Description: Inhibition of growth of tumor cells (SRB assay), HeLa. It counts as cell-based. The note with it: 0.01-100 μg/mL, cultured 48 hours. How it is done: (§1) Cells were cultured in Dulbecco's modified Eagle's medium (hereunder referred to as DMEM) containing 5-10% fetal bovine serum and L-glutamine in an incubator of 37° C. and 5% CO2. Adherent cells were suspended using a trypsin-EDTA solution and isolated and collected for testing.
(§2) The cells were cultured on a 96-well plate, 5×10^3-10^4 cells each. After treating with the extract and the active ingredient at a concentration of 0, 0.01, 0.1, 1, 10 and 100 μg/mL, the cells were cultured for 48 hours. After culturing for […], the culture medium was removed from each well and 200 μL of 10% TCA (trichloroacetic acid) was added. The cells were fixed to the bottom of the plate by letting alone at 4° C. for 1 hour. After fixation, the plate was washed with distilled water for 5-6 times to remove the remaining TCA solution and then completely dried. To the plate was added 200 μL of a staining solution per each well, which was prepared by dissolving 0.4% SRB solution in 1% acetic acid solution. After 30 minutes' staining, the plate was washed with 1% acetic acid solution for 5-6 times to remove excess SRB. The plate was dried at room temperature and 200 μL of 10 mM trisma base solution (unbuffered) was added per each well. After 10 minutes' of shaking using a titer plate shaker to elute out the staining solution, light absorbance was measured at 540 nm using a microplate reader.

Data set [2] deals with MDA-MB-231 (breast cancer cells). The experiment in a line: Inhibition of growth of tumor cells (SRB assay), MDA-MB-231. It counts as cell-based. The note with it: MDA-MB-231 cells, 0.01-100 μg/mL, cultured 48 hours. Here is the method: as §1, §2
Another data set relates to A549 (lung cancer cells). Description: Inhibition of growth of tumor cells (SRB assay), A549. The note with it: 0.01-100 μg/mL, cultured 48 hours. Format: cell-based. How it is done:
as §1, §2

The subject of data set [3] is MCF7 (breast cancer cells). Description: Inhibition of growth of tumor cells (SRB assay), MCF7. It counts as cell-based. The note with it: 0.01-100 μg/mL, cultured 48 hours. How it is done:
as §1, §2

In data set [4] the test system is HCT15 (colon cancer cells). Description: Inhibition of growth of tumor cells (SRB assay), HCT15. Format: cell-based. The following applies: cultured 48 hours; for Inhibitory effect against growth of cancer cells IC50 HCT15: 0.01-100 μg/mL. Here is the method:
as §1, §2

The test system of another data set is SK-OV-3 (cancer cells). The experiment in a line: Inhibition of growth of tumor cells (SRB assay), SK-OV-3. Format: cell-based. The note with it: Homo sapiens, SK-OV-3 cells, 0.01-100 μg/mL, cultured 48 hours, read-out: Inhibitory effect against growth of cancer cells IC50 SK-OV-3. How it is done:
as §1, §2

Data set [5] deals with mice. Description: Toxicity test, intraperitoneal injection to mice. Format: in vivo. The following applies: for Mice died: intraperitoneal, 20 mg/kg, 10 mice per group, observed 7 days; for Cause of the death of the mice: right after the intraperitoneal injection. Here is the method:
(§3) Toxicity test was performed as follows for the Androsace umbellata Merr. extract, fraction thereof and saxifragifolins B and D of the present invention.
(§4) Each of the Androsace umbellata Merr. extract, fraction thereof and saxifragifolins D and B was dissolved in 1% sodium carboxymethlycellulose and diluted with water. The solution was intraperitoneally injected to mice (10 per each group) at a dose of 0, 0.016, 0.8, 4, 20 and 100 mg/kg. […] No mouse died in the Androsace umbellata Merr. extract group. All the 10 mice of the 100 mg/kg Androsace umbellata Merr. fraction group died right after the administration and two died in the 20 mg/kg group. 3 mice died in each of the 20 mg/kg saxifragifolin B and saxifragifolin D groups. No more mice died until the 7th day. […] When the Androsace umbellata Merr. extract, fraction thereof and saxifragifolins D and B were dissolved in corn oil and orally administered at a dose of 1, 10 and 100 mg/kg, no mice died for 7 days.

In data set [6] the test system is mice. The experiment in a line: Toxicity test, oral administration to mice. The following applies: orally, in corn oil, 1, 10 and 100 mg/kg, 7 days. Format: in vivo. Here is the method:
as §3, §4

The test system of data set [7] is SK-OV-3 (uterine cancer cells). Description: Inhibition of growth of tumor cells (SRB assay), SK-OV-3. Format: cell-based. The note with it: SK-OV-3 cells, 0.01-100 μg/mL, cultured 48 hours. Here is the method:
as §1, §2

For the molecule `COc1cccc2c1C(=O)c1c(O)c3c(c(O)c1C2=O)C[C@@](O)(C(=O)CO)C[C@@H]3O[C@H]1C[C@H](N)[C@H](O)[C@H](C)O1` [Doxorubicin, reference compound], the IC50 in data set [1] (Homo sapiens, read-out: Inhibitory effect against growth of cancer cells IC50 HeLa) amounted to 0.21 ± 0.01 µg/mL (≈ 0.386 µM); in data set [2] (Homo sapiens, read-out: Inhibitory effect against growth of cancer cells IC50 MDA-MB-231), 0.02 ± 0.01 µg/mL (≈ 0.0368 µM); with A549 (lung cancer cells) (Homo sapiens, read-out: Inhibitory effect against growth of cancer cells IC50 A549), 0.011 ± 0.01 µg/mL (≈ 0.0202 µM); in data set [3] (Homo sapiens, read-out: Inhibitory effect against growth of cancer cells IC50 MCF7) it was 0.5 ± 0.02 µg/mL (≈ 0.92 µM); in data set [4] (Homo sapiens, HCT-15, 0.01-100 μg/mL, read-out: Inhibitory effect against growth of cancer cells IC50 HCT15), 0.014 ± 0.02 µg/mL (≈ 0.0258 µM); in the data set on SK-OV-3 (cancer cells), 0.77 ± 0.03 µg/mL (≈ 1.42 µM).
For the molecule “cyclamiretin A 3-O-{β-D-glucopyranosyl-(1→4)-β-D-glucopyranosyl-(1→2)-β-D-xylopyranosyl-(1→2)-β-D-glucopyranosyl-(1→4)-α-L-arabinopyranoside} [Saxifragifolin D]”, the “Inhibitory effect against growth of cancer cells IC50 HeLa” value in data set [1] turned out to be 0.98 ± 0.05 µg/mL. Also, in the data set on mice [5], the Mice died is recorded as 3 mice and the “Cause of the death of the mice” value is given as “hemolysis of red blood cells”. Moreover, the “Inhibitory effect against growth of cancer cells IC50 MDA-MB-231” value in data set [2] is 1.32 ± 0.03 µg/mL. Besides, the “Inhibitory effect against growth of cancer cells IC50 A549” value in the data set with A549 (lung cancer cells) turned out to be 0.016 ± 0.01 µg/mL. In addition, the “Inhibitory effect against growth of cancer cells IC50 MCF7” value in [3] is 3.23 ± 0.10 µg/mL. Moreover, in data set [4], the “Inhibitory effect against growth of cancer cells IC50 HCT15” value came to 0.558 ± 0.24 µg/mL. Moreover, the Mice died result with mice [6] was “no mice died”. For the same molecule, the “Inhibitory effect against growth of cancer cells IC50 SK-OV-3” value in data set [7] stood at 6.36 ± 0.12 µg/mL.
Take “cyclamiretin A 3-O-{β-D-xylopyranosyl-(1→2)-β-D-glucopyranosyl-(1→4)-β-D-glucopyranosyl-(1→2)-α-L-arabinopyranoside} [Saxifragifolin B]”: in [1], the “Inhibitory effect against growth of cancer cells IC50 HeLa” value stood at 1.22 ± 0.04 µg/mL. In the data set with mice [5], the Mice died is recorded as 3 mice and the “Cause of the death of the mice” value is listed as “hemolysis of red blood cells”. Also, the “Inhibitory effect against growth of cancer cells IC50 MDA-MB-231” value in [2] came to 3.02 ± 0.02 µg/mL. Further, the “Inhibitory effect against growth of cancer cells IC50 A549” value in the data set with A549 (lung cancer cells) amounted to 0.036 ± 0.02 µg/mL. Moreover, in data set [3], the “Inhibitory effect against growth of cancer cells IC50 MCF7” value was 6.88 ± 0.13 µg/mL. Besides, in data set [4], the “Inhibitory effect against growth of cancer cells IC50 HCT15” value came to 0.183 ± 0.17 µg/mL. Moreover, the Mice died entry in the data set on mice [6] was “no mice died”. Moreover, the “Inhibitory effect against growth of cancer cells IC50 SK-OV-3” value in [7] was determined as 8.39 ± 0.23 µg/mL.
